Source: BindingDB's records for doi:10.1021/cb700200w (Novartis, 2008)
pIC50: −log10 of the molar value.

Assays:
[1] = target: Cyclin-dependent kinase/G2/mitotic-specific cyclin- 1 (Homo sapiens, UniProt P06493); experiment: Z-LYTE Enzymatic Kinase Assay
Experimental: Enzyme activity was assayed using Z-LYTE Enzymatic Kinase Assay format (Invitrogen Corp., Carlsbad, CA) in the SelectScreen Kinase Profiling Service (Invitrogen Discovery Sciences, Madison, WI).

Aurora kinase A = target: T1, Aurora kinase A (Homo sapiens, UniProt O14965); experiment: Aurora Kinase SPA Assay
T1 sequence (O14965 whole entry): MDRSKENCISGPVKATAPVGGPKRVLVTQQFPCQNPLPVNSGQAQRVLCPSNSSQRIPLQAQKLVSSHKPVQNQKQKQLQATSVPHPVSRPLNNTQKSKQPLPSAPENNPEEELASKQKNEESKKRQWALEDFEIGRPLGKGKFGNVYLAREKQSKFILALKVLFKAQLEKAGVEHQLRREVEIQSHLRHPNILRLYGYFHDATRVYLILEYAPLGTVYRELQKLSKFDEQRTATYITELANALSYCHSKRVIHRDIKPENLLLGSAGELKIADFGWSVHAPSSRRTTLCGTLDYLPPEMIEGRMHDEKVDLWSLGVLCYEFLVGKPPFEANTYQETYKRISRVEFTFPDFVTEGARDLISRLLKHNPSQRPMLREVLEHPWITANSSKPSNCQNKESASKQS
Experimental: The biochemical activity of compounds was determined by incubation with Aurora A and substrates in the presence ATP/[gamma-33P] ATP. After incubation, the reaction was stopped and the phosphorylated substrate was separated from nonincorporated radioactive ATP using SPA beads (Amersham Pharmacia Biotech), counted using TopCount (Packard) to measure substrate-incorporated phosphate.

Sequence of Cyclin-dependent kinase/G2/mitotic-specific cyclin- 1 (P06493 whole entry): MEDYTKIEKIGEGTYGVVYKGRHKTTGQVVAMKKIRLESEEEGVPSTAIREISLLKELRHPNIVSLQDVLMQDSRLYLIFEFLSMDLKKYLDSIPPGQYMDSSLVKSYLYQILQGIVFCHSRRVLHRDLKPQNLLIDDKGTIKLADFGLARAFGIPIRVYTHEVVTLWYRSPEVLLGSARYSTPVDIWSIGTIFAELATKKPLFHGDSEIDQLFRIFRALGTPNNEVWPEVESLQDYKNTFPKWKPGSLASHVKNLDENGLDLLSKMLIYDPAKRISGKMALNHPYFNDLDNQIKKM
Sequence of Cyclin-dependent kinase/G2/mitotic-specific cyclin- 1 (P14635 whole entry, further chain): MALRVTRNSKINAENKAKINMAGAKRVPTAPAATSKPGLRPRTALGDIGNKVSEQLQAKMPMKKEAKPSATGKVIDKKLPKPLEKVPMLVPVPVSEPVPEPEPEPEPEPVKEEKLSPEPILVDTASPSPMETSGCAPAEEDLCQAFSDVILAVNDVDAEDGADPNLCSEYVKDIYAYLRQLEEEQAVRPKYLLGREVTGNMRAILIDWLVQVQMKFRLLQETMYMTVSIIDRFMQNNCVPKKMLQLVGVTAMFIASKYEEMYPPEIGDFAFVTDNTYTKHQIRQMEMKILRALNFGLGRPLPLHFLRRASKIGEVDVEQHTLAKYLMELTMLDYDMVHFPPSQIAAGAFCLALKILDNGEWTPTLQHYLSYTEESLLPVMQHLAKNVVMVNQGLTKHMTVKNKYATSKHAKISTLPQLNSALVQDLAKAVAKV

| SMILES | pIC50 [1] | pIC50 (Aurora kinase A; pH 7, 22 °C) | pIC50 (Aurora kinase A) |
| --- | --- | --- | --- |
| CNC(=O)c1ccc(Nc2ncc(Br)s2)cc1 [4-[(5-bromo-1,3-thiazol-2-yl)amino]-N-methylbenzamide] | 5.37 |  |  |
| Fc1ccc(Nc2ncc(Br)s2)cc1 [5-bromo-N-(4-fluorophenyl)-1,3-thiazol-2-amine] | < 5.00 | 6.40 |  |
| O=C(O)c1ccc(Nc2ncc(Br)s2)cc1 [4-[(5-bromo-1,3-thiazol-2-yl)amino]benzoic acid] | < 5.00 | 7.10 |  |
| N#Cc1cccc(Nc2ncc(Br)s2)c1 [3-[(5-bromo-1,3-thiazol-2-yl)amino]benzonitrile] |  |  | 5.82 |
| CCN1CCN(Cc2ccc(Nc3ncc(C#N)s3)nc2)CC1 [2-({5-[(4-ethylpiperazin-1-yl)methyl]pyridin-2-yl}amino)-1,3-thiazole-5-carbonitrile] |  |  | 5.36 |
| COCCNC(=O)c1ccc(Nc2ncc(Br)s2)cc1 [4-[(5-bromo-1,3-thiazol-2-yl)amino]-N-(2-methoxyethyl)benzamide] |  | 7.01 |  |
| COCCN(C)C(=O)c1ccc(Nc2ncc(Br)s2)cc1 [4-[(5-bromo-1,3-thiazol-2-yl)amino]-N-(2-methoxyethyl)-N-methylbenzamide] |  | 6.01 |  |
| Cc1ccc(Nc2ncc(Br)s2)cc1 [5-bromo-N-(4-methylphenyl)-1,3-thiazol-2-amine] |  | 5.55 |  |
| Brc1cnc(Nc2cccnc2)s1 [5-bromo-N-(pyridin-3-yl)-1,3-thiazol-2-amine] |  |  | 5.44 |
| O=C(O)c1cccc(Nc2ncc(Br)s2)c1 [3-[(5-bromo-1,3-thiazol-2-yl)amino]benzoic acid] |  |  | 6.36 |
| FC(F)(F)Oc1ccc(Nc2ncc(Br)s2)cc1 [5-bromo-N-[4-(trifluoromethoxy)phenyl]-1,3-thiazol-2-amine] |  | 4.76 |  |
| Fc1ccc(Nc2ncc(I)s2)cc1 [N-(4-fluorophenyl)-5-iodo-1,3-thiazol-2-amine] |  | 6.30 |  |
| Nc1ncc(Br)s1 [5-bromo-1,3-thiazol-2-amine] |  |  | < 5.00 |
| FC(F)(F)c1cccc(Nc2ncc(Br)s2)c1 [5-bromo-N-[3-(trifluoromethyl)phenyl]-1,3-thiazol-2-amine] |  |  | 5.00 |

Other lines, results leading:

| pIC50 [1] | pIC50 (Aurora kinase A; pH 7, 22 °C) | pIC50 (Aurora kinase A) | SMILES |
| --- | --- | --- | --- |
|  | 5.85 |  | Brc1cnc(Nc2ccc(Oc3ccccc3)cc2)s1 [5-bromo-N-(4-phenoxyphenyl)-1,3-thiazol-2-amine] |
|  | 5.68 |  | N#Cc1ccc(Nc2ncc(Br)s2)cc1 [4-[(5-bromo-1,3-thiazol-2-yl)amino]benzonitrile] |
|  |  | 5.03 | Fc1cccc(Nc2ncc(Br)s2)c1 [5-bromo-N-(3-fluorophenyl)-1,3-thiazol-2-amine] |
|  |  | < 5.00 | Fc1ccc(Nc2ncc(Br)s2)c(F)c1 [5-bromo-N-(2,4-difluorophenyl)-1,3-thiazol-2-amine] |
|  | 5.77 |  | CC(=O)c1ccc(Nc2ncc(Br)s2)cc1 [1-{4-[(5-bromo-1,3-thiazol-2-yl)amino]phenyl}ethan-1-one] |
|  |  | 5.52 | Cc1ccccc1Nc1ncc(Br)s1 [5-bromo-N-(2-methylphenyl)-1,3-thiazol-2-amine] |
